Data published in patent US7951990B2, “Method and means for determining fitness in plants” (Bayer Bioscience N.V., priority 2001, dated 2011).

Experiments:
Assay type in all cases: cell-based, Brassica napus
[1] = test system: cytochromal and alternative respiratory pathways
[2] = test system: electron flow in the mitochondrial electron transport chain (TTC-reducing capacity of hypocotyl explants); experiment: vigour assay (TTC-assay) with acetylsalicylic acid added to the incubation medium; conditions: for TTC-reducing capacity after treatment versus control condition / TTC-reducing capacity after treatment: 25 mg/l; for TTC-reducing capacity after treatment versus control condition: about 18 hours
[3] = test system: superoxide production by the hypocotyl explants; experiment: quantification of superoxide production by hypocotyl explants (XTT reduction); conditions: 25 mg/l, incubation for 18 hours; all four hybrid lines

SMILES	influence on the TTC reduction [1]	TTC-reducing capacity after treatment versus control condition ([2]; hybrid line 13 (lowest seed yield))	TTC-reducing capacity after treatment versus control condition ([2]; hybrid line 41 (highest seed yield))	TTC-reducing capacity after treatment ([2]; parental line DH7 (poor combining ability))	TTC-reducing capacity after treatment ([2]; parental lines A and B (excellent combining ability))	TTC-reducing capacity after treatment ([2]; parental lines DH4, DH5 and DH10 (moderate to good combining ability))	TTC-reducing capacity ([2]; 50 mg/l, best performing hybrid lines)	TTC-reducing capacity ([2]; 50 mg/l, hybrid lines with a less pronounced heterosis)	TTC-reducing capacity ([2]; 100 mg/l, best performing hybrid lines)	XTT reduction (superoxides) [3]
O=C(NO)c1ccccc1O [SHAM, salicylhydroxamic acid]	does not seem to have a major influence	–	–	–	–	–	–	–	–	–
CC(=O)Oc1ccccc1C(=O)O [acetylsalicylic acid]	–	increased drastically	strongest decrease	high increase	decreased	no or only a small increase	increased	didn't show at 50 mg/l acetylsalicylic acid this increase	decrease again	lower amounts of XTT were reduced
